Test results: article PMC10287566, “Signaling-specific inhibition of the CB1 receptor for cannabis use disorder: phase 1 and phase 2a randomized trials” (Nature Medicine, 2023)
Where two headings read alike, the source gives them in different places.

How the values were obtained:
[1] = Plasma pharmacokinetics/toxicokinetics in dogs (oral and i.v.); type: in vivo; settings: both sexes, Beagle, dog; for bioavailability: ratio of AUC per os and i.v.
Description: For both conditions, animals were fasted overnight before dosing and up to approximately 2 h afterwards. […] Blood samples were drawn from the cephalic or jugular veins at the following timepoints: before dose and then at 0.125 h (7.5 min), 0.25 h, 0.5 h, 1 h, 2 h, 4 h, 6 h, 8 h, 10 h, 24 h and 48 h after dosing.
Blood samples were immediately cooled on ice. Plasma was prepared by centrifugation for 7 min at 1,600g under refrigeration (4 ± 2 °C), performed within 15 min at maximum after blood sampling. Plasma was divided into two polypropylene tubes containing at least 500 µl and then stored frozen (≤−70 °C) until assay.
For all studies in rats and the 91-d toxicity study in dogs, the timepoints on days 1, 28 and 91 were: before dose and 1, 3, 5, 8 and 24 h after dose. For the 28-d toxicity study in dogs, the timepoints on days 1 and 28 were: before dose and 1, 2, 4, 8, and 24 h after dose. In both species, only mean pre-dose plasma concentrations were calculated on day 14 for the 28-d study and on day 28 for the 91-d study. For the experiments in rats, blood samples for drug analysis were taken from the satellite animals used for the toxicokinetic (TK) analysis (n = 3 per sex per timepoint and per group). For experiments performed in dogs, blood samples were drawn from the cephalic or jugular veins of all animals (n = 3 per sex per group).
TK analysis was performed separately per sex on mean concentrations by a non-compartmental analysis (NCA). The linearity of exposure was evaluated by comparison of the AUC/dose and Cmax/dose ratios. Possible accumulation was evaluated from the ratio of AUC on day 28 and on day 1 for each dose level and each sex. Samples lower than the limit of quantification (LLQ) values (that is, < 8.00 ng ml^−1 in rats and <20.0 ng ml^−1 in dogs) were not included in the calculation of TK parameters.

AR (androgen receptor) = assay: Eurofins binding screen; settings: 10 µM
human CB1 = human CB1 (Homo sapiens, UniProt P21554); assay: THC-induced decrease in cAMP in CHO-hCB1 cells; type: cell-based; parameters: host or cells: CHO-K1
Chain of human CB1 (P21554 whole entry): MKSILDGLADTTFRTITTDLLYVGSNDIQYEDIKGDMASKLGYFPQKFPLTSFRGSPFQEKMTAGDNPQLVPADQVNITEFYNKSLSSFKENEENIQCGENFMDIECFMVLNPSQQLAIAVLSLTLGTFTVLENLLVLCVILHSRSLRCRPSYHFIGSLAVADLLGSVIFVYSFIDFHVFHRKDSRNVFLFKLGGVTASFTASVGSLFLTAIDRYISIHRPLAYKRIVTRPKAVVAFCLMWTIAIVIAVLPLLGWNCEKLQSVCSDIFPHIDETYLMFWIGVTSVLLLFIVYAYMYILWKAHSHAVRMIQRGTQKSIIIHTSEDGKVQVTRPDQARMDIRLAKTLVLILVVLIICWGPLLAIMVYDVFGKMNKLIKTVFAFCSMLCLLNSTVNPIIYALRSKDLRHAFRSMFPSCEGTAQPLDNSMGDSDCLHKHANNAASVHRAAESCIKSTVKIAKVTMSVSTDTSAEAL
Description: CHO cells stably expressing the human CB1 receptor (CHO-hCB1) were used in these experiments (ES-110C, PerkinElmer).
CHO-hCB1 cells were treated by concomitantly adding THC and the test compound for 45 min. Forskolin (2.5 µM) was also simultaneously added in all the conditions tested to sustain cAMP basal level. At the end of the treatment, cells were lysed for cAMP quantification. All measures were performed in triplicate in one experiment.
The quantitative determination of cAMP was done using a competitive fluorescence immunoassay. Data were expressed as % of Δ fluorescence (ΔF) that was calculated as follows: ΔF% = (sample fluorescence − negative control fluorescence) / negative control fluorescence. These experiments were done by the CRO Fluofarma.

[2] = target: T1, hERG (human ether-a-go-go-related gene) (Homo sapiens, UniProt Q12809); assay: hERG tail current in transfected HEK293 cells (GLP); type: cell-based; settings: GLP safety pharmacology
T1 construct: expressed in transfected cells; host or cells: HEK293 (stably transfected)
T1 sequence (Q12809 whole entry): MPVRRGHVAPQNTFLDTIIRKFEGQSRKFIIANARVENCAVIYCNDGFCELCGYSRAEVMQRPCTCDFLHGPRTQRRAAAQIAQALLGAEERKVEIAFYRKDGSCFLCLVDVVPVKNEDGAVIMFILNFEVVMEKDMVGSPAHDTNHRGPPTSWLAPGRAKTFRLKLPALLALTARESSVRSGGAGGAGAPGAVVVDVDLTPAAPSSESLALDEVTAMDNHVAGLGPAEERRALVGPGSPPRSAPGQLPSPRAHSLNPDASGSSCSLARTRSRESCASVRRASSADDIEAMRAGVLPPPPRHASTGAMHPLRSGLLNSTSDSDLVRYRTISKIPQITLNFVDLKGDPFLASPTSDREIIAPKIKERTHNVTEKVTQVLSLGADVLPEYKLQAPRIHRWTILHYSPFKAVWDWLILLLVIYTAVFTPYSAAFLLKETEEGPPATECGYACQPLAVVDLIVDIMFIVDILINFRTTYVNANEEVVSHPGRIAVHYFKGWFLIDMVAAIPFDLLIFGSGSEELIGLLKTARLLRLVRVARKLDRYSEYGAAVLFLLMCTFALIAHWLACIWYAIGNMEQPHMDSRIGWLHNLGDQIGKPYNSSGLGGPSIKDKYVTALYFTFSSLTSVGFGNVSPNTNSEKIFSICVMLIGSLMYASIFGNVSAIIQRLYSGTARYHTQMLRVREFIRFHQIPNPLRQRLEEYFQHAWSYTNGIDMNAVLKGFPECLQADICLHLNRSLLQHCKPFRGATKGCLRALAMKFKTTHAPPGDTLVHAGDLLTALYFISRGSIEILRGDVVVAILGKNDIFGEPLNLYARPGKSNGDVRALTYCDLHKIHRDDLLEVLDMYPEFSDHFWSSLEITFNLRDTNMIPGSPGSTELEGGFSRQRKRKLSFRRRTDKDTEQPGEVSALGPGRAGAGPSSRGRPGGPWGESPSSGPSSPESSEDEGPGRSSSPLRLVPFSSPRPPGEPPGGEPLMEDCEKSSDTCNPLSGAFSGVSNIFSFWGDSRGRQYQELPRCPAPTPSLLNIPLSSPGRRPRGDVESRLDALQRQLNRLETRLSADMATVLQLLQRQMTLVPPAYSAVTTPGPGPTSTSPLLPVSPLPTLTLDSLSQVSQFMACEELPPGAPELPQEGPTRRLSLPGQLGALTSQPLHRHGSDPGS
Description: Cells were clamped to −80 mV, depolarized to 0 mV for 5 s allowing activation of hERG current and repolarized to −50 mV for 5 s allowing hERG tail current to deactivate. This experimental procedure was repeated at a frequency of 0.06 Hz. Currents were filtered at 1 kHz and acquired at the frequency of 2 kHz. Amplitude of hERG tail current was measured during the repolarizing pulse from 0 to −50 mV. […] Currents were measured before and after exposure to the test compound. The individual data were collected using pClamp software (release 8.2, AXON Instruments, Molecular Devices).

[3] = Phase 2a study, plasma pharmacokinetics; type: in vivo, human; settings: for Cmax: human, plasma, in the range predicted from animal data
Description: THC and its metabolites (11-OH-THC and 11-COOH-THC) were assessed at the same timepoints. […] THC and its metabolites analyses were performed using PD dataset (n = 13 for both doses).
PK parameters for AEF0117 were subject to descriptive statistics separately for each treatment group.

[4] = Exposure at the highest dose tested in animals without toxicity; type: in vivo; settings: human, plasma; exposure limit for humans
Description: The planned dose-escalation schema for the SAD study was based on preclinical pharmacodynamics (PD), safety and toxicology data translated to humans using body surface ratios to ensure a large safety margin. For the MAD study, safety and PK data from the SAD study were used to determine doses. In both studies, all safety data for a given cohort/dose level were evaluated by a Data Safety Monitoring Board that was guided by predefined stopping criteria. The stopping criteria were based on the seriousness and severity combined with frequency of AEs that would lead to either not proceeding to the next dose level or stopping the trial. Dose escalation was also to be halted if the peak plasma levels exceeded that corresponding to the NOAEL in the most sensitive animal species (that is, the rat) in preclinical toxicology studies.

mice = assay: THC-induced decrease in social interaction; type: in vivo
[5] = iv, 0.7 mg/kg, dogs i.v. 0.7 mg/kg
[6] = po, 0.7 mg/kg, dogs po 0.7 mg/kg single
[7] = po, 2 mg/kg, dogs po 2 mg/kg single, 91-day tox study
[8] = po, 2 mg/kg, dogs po 2 mg/kg theoretical (approx. 0.5 mg/kg received), 28-day tox study
[9] = po, 9 mg/kg, dogs po 9 mg/kg single, 28-day tox study
[10] = po, 20 mg/kg, dogs po 20 mg/kg single, 91-day tox study
[11] = po, 36 mg/kg, dogs po 36 mg/kg single, 28-day tox study
[12] = po, 65 mg/kg, dogs po 65 mg/kg single, 91-day tox study
[13] = Impairment of social interaction

`COc1ccc(CO[C@H]2CC[C@@]3(C)C(=CC[C@H]4[C@@H]5CC[C@H](C(C)=O)[C@@]5(C)CC[C@@H]43)C2)cc1` [AEF0117, 3β-(4-methoxybenzyloxy)pregn-5-en-20-one] gave a Tmax ([1]; dogs po 0.7 mg/kg single) of 2.67 h, a Tmax ([1]; dogs po 2 mg/kg theoretical (approx. 0.5 mg/kg received), 28-day tox study) of 4 h and a Tmax ([1]; dogs po 9 mg/kg single, 28-day tox study) of 6 h. The Tmax ([1]; dogs po 20 mg/kg single, 91-day tox study) was 4 h, the Tmax ([1]; dogs po 36 mg/kg single, 28-day tox study) was 4 h and the Tmax ([1]; dogs po 65 mg/kg single, 91-day tox study) was 4 h. The half-life ([1]; dogs, read-out: terminal half-life (converted)) was 35.9 h, the AUC(0-t) [1, 5] was 2190 ng·h/mL and the Cmax [1, 5] was 505 ng/mL. The half-life ([1]; iv, 0.7 mg/kg, dogs i.v. 0.7 mg/kg, manual linear regression of last three points, read-out: t½ (converted)) was 35.9 h, the half-life ([1]; iv, 0.7 mg/kg, dogs iv, read-out: half-life) was 33.5 to 38.2 h and the Tmax ([1]; iv, dogs i.v. 0.7 mg/kg) was 0.125 h. For the same compound, the bioavailability ([1]; oral, 0.7 mg kg^−1, dogs) was roughly 68%, the AUC(0-t) [1, 6] was 1450 ng·h/mL and the Cmax [1, 6] was 138 ng/mL. The half-life ([1]; po, 0.7 mg/kg, dogs po 0.7 mg/kg, manual linear regression of last three points, read-out: t½ (converted)) was 28 h, the bioavailability ([1]; po, 0.7 mg/kg, dogs) was 68% and the AUC(0-t) [1, 7] was 2910 ng·h/mL. For the same compound, the Cmax [1, 7] was 241 ng/mL, the AUC(0-t) [1, 8] was 1020 ng·h/mL and the Cmax [1, 8] was 95 ng/mL. The AUC(0-t) [1, 9] was 18500 ng·h/mL, the Cmax [1, 9] was 1200 ng/mL and the AUC(0-t) [1, 10] was 26500 ng·h/mL. The Cmax [1, 10] was 2530 ng/mL, the AUC(0-t) [1, 11] was 50300 ng·h/mL and the Cmax [1, 11] was 3480 ng/mL. The AUC(0-t) [1, 12] was 43500 ng·h/mL, the Cmax [1, 12] was 3300 ng/mL and the half-life ([1]; po, dogs per os, read-out: half-life) was 24.4 to 31.6 h. For the same compound, the “Percent inhibition of control specific binding” value (AR (androgen receptor)) was 20%, the “effect on THC's effects on cAMP” value (human CB1) was “without modifying” and the “adverse effects on hERG tail current” value [2] was “did not show any adverse effects”. The “plasma concentration below LLOQ after washout” value ([3]; 0.06 mg first, >=14 d later, 3 participants) was 0.0002 to 0.0093 ng/mL, the “mean concentration 24 h after 5th dose higher than 24 h after 1st dose” value ([3]; Phase 2a, 0.06 and 1 mg) was 30-50% and the Cmax ([3]; 0.06 mg) was no less than 0.15 ng/mL. For the same compound, the Cmax ([3]; 1 mg) was no less than 1.5 ng/mL, the AUC [4] was 41600 ng·h/mL and the Cmax [4] was 4360 ng/mL. For the same compound, the “THC's effects on social interaction” value (mice) was “inhibited”, the “% Inhibition” value (mice; [13]) was 100% and the ID50 (mice; [13]) was 0.005 mg/kg. It also gave an ID100 (mice; [13]) of 0.015 mg/kg.
